Laboratory results reported in US4405625A, “Method of treating hyperglycemia with 1,3-dioxo-1H-benz[de]isoquinoline-2(3H)-acetic acid” (Ayerst, McKenna and Harrison Limited, priority 1979, dated 1983).

Key:
plasma glucose [1] = experiment: Intravenous glucose tolerance test in anaesthetized fasted non-diabetic male intact rats: plasma glucose; assay type: in vivo, rat (male Sprague Dawley); conditions: 0.75 mmol/kg i.v., mean±S.E.M.
Method: (§1) A description of this experiment is as follows.
(§2) Male Sprague Dawley rats (200-250 g, Canadian Breeding Laboratories, St. Constant, Quebec, Canada) were used in the experiment. There were 11 animals in the group. The animals were kept in a room with constant light-dark cycle and temperature. They were allowed food (Purina Lab Chow™) and water ad libitum for at least three days before being utilized. The animals were then fasted for 24 hours and anaesthetized with nembutal (50 mg/kg, intraperitoneally; Abbott Laboratories, Montreal, Quebec, Canada.) The jugular veins were exposed and a fasting blood sample was drawn by the transmusculature puncture method, Y. Kato, J. Dupre and J. C. Beck, Endocrinology, 93, 135 (1973), employing a sodium heparin (The Upjohn Company, Don Mills, Ontario, Canada) washed syringe. Alrestatin sodium at a dose of 0.75 mmol/kg was administered as a bolus in the jugular vein followed immediately by a bolus of D-glucose (300 mg/kg; British Drug House, Montreal, Quebec, Canada). Control animals received an injection of sodium chloride (0.75 mmol/kg) instead of the alrestatin sodium. Blood samples were drawn at 5, 10 and 15 minutes after injection of the glucose. The wounds then were closed with autoclips (Clay Adams Co., Parsippany, N. J., U.S.A.) and the animals were allowed food and water for another three day period before the experiment was repeated, i.e., on day 4. […]
(§3) Plasma insulin was measured by radioimmunoassay using a charcoal separation method, V. Herbert et al, J. Clin. Endocrinol., 25, 1375 (1965). […] Plasma glucose was measured by a glucose oxidase method employing a Beckman Glucose Analyser, see Beckman Company Manual, Palo Alto, Calif., U.S.A.
(§4) The results, noted below, are expressed as mean± S.E.M. The statistical significance of changes in the concentration of plasma glucose (mg/100 ml) and insulin (μU/ml), in response to alrestatin or the vehicle, from basal fasting values was determined on the differences between group means by the Student's […]. […]

plasma glucagon = experiment: Arginine-induced glucagon release in intact rats; assay type: in vivo, rat (male Sprague-Dawley)
Method: (§5) After light deithyl ether anaesthetization, the animals were injected with a bolus of saline or alrestatin (sodium salt form in 0.3 ml saline/100 g of body weight) in the external jugular vein followed immediately with a bolus of arginine-HCl (British Drug House ) at a dose of 100 mg/100 g of body weight, cf. […] Vehicle control animals received a second injection of saline. Five minutes later trunk blood was collected by decapitation into chilled tubes containing sodium heparin (Upjohn) and aprotinin(Trasylol™, Boehringer-Ingelheim Dorval, Quebec, Canada) (20 U and 1000 KIU per ml whole blood, respectively). Plasma was collected after centrifugation, stored at -20° C. and assayed for immunoreactive glucagon and insulin levels within 2 weeks.
(§6) Rat insulin purchased from Novo A/S, Copenhagen, Denmark, was used as unlabelled standard. […] Glucagon antiserum (Antiserum 30K, purchased from Dr. R. H. Unger, Houston, Tex., U.S.A.) was employed in the assay. […] Metab. […] Metab. […] Antibody bound hormone was separated from free hormone by conventional charcoal-dextran methods.

plasma insulin [2] = experiment: Intravenous glucose tolerance test in anaesthetized fasted non-diabetic male intact rats: plasma insulin; assay type: in vivo, rat (male Sprague Dawley); conditions: 0.75 mmol/kg i.v.
Method: as §1, §2, §3, §4

blood glucose = experiment: Clinical tests in diabetic patients: blood glucose levels; assay type: in vivo, human (diabetic patients)
Excerpt: All patients were on a controlled diet. Patient A also was receiving the oral antidiabetic agent, glyburide (Daonil™) and patient C also was receiving the diuretic chlorthalidone (Hygroton™).

plasma insulin [3] = experiment: Arginine-induced insulin release in intact rats; assay type: in vivo, rat (male Sprague-Dawley)
Method: as §5, §6

plasma insulin [4] = experiment: Acute administration without glucose bolus in fasted rats: plasma insulin; assay type: in vivo, rat (male Sprague Dawley); conditions: acute i.v. administration
Method: (§7) Male Sprague Dawley rats (200-250 g, Canadian Breeding Laboratories, St. Constant, Quebec, Canada) were used in the experiment. There were 11 animals in the group. The animals were kept in a room with constant light-dark cycle and temperature. They were allowed food (Purina Lab Chow™) and water ad libitum for at least three days before being utilized. The animals were then fasted for 24 hours and anaesthetized with nembutal (50 mg/kg, intraperitoneally; Abbott Laboratories, Montreal, Quebec, Canada.) The jugular veins were exposed and a fasting blood sample was drawn by the transmusculature puncture method, Y. Kato, J. Dupre and J. C. Beck, Endocrinology, 93, 135 (1973), employing a sodium heparin (The Upjohn Company, Don Mills, Ontario, Canada) washed syringe. […]
as §3, §4

plasma glucose [5] = experiment: Acute administration without glucose bolus in fasted rats: plasma glucose; assay type: in vivo, rat (male Sprague Dawley); conditions: acute i.v. administration
Method: as §7, §3, §4

LD50 in rats = conditions: rat, in vivo
Excerpt: Therefore, a good therapeutic index of safety is present.

aldose reductase = conditions: previously reported; cited from earlier work
[6] = 200 mg/kg i.v. immediately before arginine 100 mg/100 g
[7] = 35-200 mg/kg i.v. immediately before arginine 100 mg/100 g
[8] = arginine 100 mg/100 g i.v., 5 min

Structure (SMILES): O=C(O)CN1C(=O)c2cccc3cccc(c23)C1=O [alrestatin sodium]
- mean incremental change of plasma glucose (plasma glucose [1]; 5 min after i.v. glucose (300 mg/kg), vehicle 96±4.7, NS): 83.3±5.4 mg %
- mean incremental change of plasma glucose (plasma glucose [1]; 10 min after i.v. glucose (300 mg/kg), vehicle 82.8±7.5, p<0.05): 58.8±8.5 mg %
- mean incremental change of plasma glucose (plasma glucose [1]; 15 min after i.v. glucose (300 mg/kg), vehicle 78.4±10.7, p<0.05): 45.4±9.6 mg %
- effect on arginine-stimulated glucagon increase (plasma glucagon; [6]): completely prevented the increase caused by arginine
- effect on arginine-stimulated glucagon concentrations (plasma glucagon; [7]): decreased the glucagon concentrations
- mean incremental change of plasma insulin (plasma insulin [2]; 5 min after i.v. glucose (300 mg/kg), mean±S.E.M., vehicle 32.9±5.2, p<0.02): 76.9±16.7 μU/ml
- plasma insulin levels vs vehicle (plasma insulin [2]; 10 min after i.v. glucose (300 mg/kg)): significantly greater
- plasma insulin levels vs vehicle (plasma insulin [2]; 15 min after i.v. glucose (300 mg/kg)): greater at 15 minutes in the alrestatin treated group although the difference was not significant
- lowering of blood sugar levels (blood glucose; 50 mg/kg/day i.v. for five days, diabetic patients): effective in lowering blood sugar levels
- blood glucose, fasting (blood glucose; Patient A (also on glyburide), day 1, 50 mg/kg/day i.v., pretreatment 162): 132 mg %
- blood glucose, 2hr postprandial (blood glucose; Patient A (also on glyburide), day 1, 50 mg/kg/day i.v., pretreatment 276): 185 mg %
- blood glucose, fasting (blood glucose; Patient A (also on glyburide), day 2, 50 mg/kg/day i.v., pretreatment 162): 130 mg %
- blood glucose, 2hr postprandial (blood glucose; Patient A (also on glyburide), day 2, 50 mg/kg/day i.v., pretreatment 276): 215 mg %
- blood glucose, fasting (blood glucose; Patient A (also on glyburide), day 3, 50 mg/kg/day i.v., pretreatment 162): 97 mg %
- blood glucose, 2hr postprandial (blood glucose; Patient A (also on glyburide), day 3, 50 mg/kg/day i.v., pretreatment 276): 155 mg %
- blood glucose, fasting (blood glucose; Patient A (also on glyburide), day 4, 50 mg/kg/day i.v., pretreatment 162): 90 mg %
- blood glucose, 2hr postprandial (blood glucose; Patient A (also on glyburide), day 4, 50 mg/kg/day i.v., pretreatment 276): 117 mg %
- blood glucose, fasting (blood glucose; Patient A (also on glyburide), day 5, 50 mg/kg/day i.v., pretreatment 162): 132 mg %
- blood glucose, 2hr postprandial (blood glucose; Patient A (also on glyburide), day 5, 50 mg/kg/day i.v., pretreatment 276): 230 mg %
- blood glucose, fasting (blood glucose; Patient A (also on glyburide), follow-up after 5 days i.v. treatment, pretreatment 162): 111 mg %
- blood glucose, 2hr postprandial (blood glucose; Patient A (also on glyburide), follow-up after 5 days i.v. treatment, pretreatment 276): 207 mg %
- blood glucose, fasting (blood glucose; Patient B, day 1, 50 mg/kg/day i.v., pretreatment 90): 92 mg %
- blood glucose, 2hr postprandial (blood glucose; Patient B, day 1, 50 mg/kg/day i.v., pretreatment 119): 72 mg %
- blood glucose, fasting (blood glucose; Patient B, day 2, 50 mg/kg/day i.v., pretreatment 90): 89 mg %
- blood glucose, 2hr postprandial (blood glucose; Patient B, day 2, 50 mg/kg/day i.v., pretreatment 119): 86 mg %
- blood glucose, fasting (blood glucose; Patient B, day 3, 50 mg/kg/day i.v., pretreatment 90): 86 mg %
- blood glucose, 2hr postprandial (blood glucose; Patient B, day 3, 50 mg/kg/day i.v., pretreatment 119): 94 mg %
- blood glucose, fasting (blood glucose; Patient B, day 4, 50 mg/kg/day i.v., pretreatment 90): 50 mg %
- blood glucose, 2hr postprandial (blood glucose; Patient B, day 4, 50 mg/kg/day i.v., pretreatment 119): 60 mg %
- blood glucose, fasting (blood glucose; Patient B, day 5, 50 mg/kg/day i.v., pretreatment 90): 50 mg %
- blood glucose, 2hr postprandial (blood glucose; Patient B, day 5, 50 mg/kg/day i.v., pretreatment 119): 43 mg %
- blood glucose, fasting (blood glucose; Patient B, follow-up after 5 days i.v. treatment, pretreatment 90): 81 mg %
- blood glucose, 2hr postprandial (blood glucose; Patient B, follow-up after 5 days i.v. treatment, pretreatment 119): 87 mg %
- blood glucose, fasting (blood glucose; Patient C (also on chlorthalidone), day 1, 50 mg/kg/day i.v., pretreatment 95): 133 mg %
- blood glucose, 2hr postprandial (blood glucose; Patient C (also on chlorthalidone), day 1, 50 mg/kg/day i.v., pretreatment 190): 128 mg %
- blood glucose, fasting (blood glucose; Patient C (also on chlorthalidone), day 2, 50 mg/kg/day i.v., pretreatment 95): 111 mg %
- blood glucose, 2hr postprandial (blood glucose; Patient C (also on chlorthalidone), day 2, 50 mg/kg/day i.v., pretreatment 190): 145 mg %
- blood glucose, fasting (blood glucose; Patient C (also on chlorthalidone), day 3, 50 mg/kg/day i.v., pretreatment 95): 104 mg %
- blood glucose, 2hr postprandial (blood glucose; Patient C (also on chlorthalidone), day 3, 50 mg/kg/day i.v., pretreatment 190): 141 mg %
- blood glucose, fasting (blood glucose; Patient C (also on chlorthalidone), day 4, 50 mg/kg/day i.v., pretreatment 95): 50 mg %
- blood glucose, 2hr postprandial (blood glucose; Patient C (also on chlorthalidone), day 4, 50 mg/kg/day i.v., pretreatment 190): 90 mg %
- blood glucose, fasting (blood glucose; Patient C (also on chlorthalidone), day 5, 50 mg/kg/day i.v., pretreatment 95): 77 mg %
- blood glucose, 2hr postprandial (blood glucose; Patient C (also on chlorthalidone), day 5, 50 mg/kg/day i.v., pretreatment 190): 106 mg %
- blood glucose, fasting (blood glucose; Patient C (also on chlorthalidone), follow-up after 5 days i.v. treatment, pretreatment 95): 119 mg %
- blood glucose, 2hr postprandial (blood glucose; Patient C (also on chlorthalidone), follow-up after 5 days i.v. treatment, pretreatment 190): 149 mg %
- increase of arginine-induced insulin release (plasma insulin [3]; [6]): about 2.5 fold
- effect on arginine-induced insulin release (plasma insulin [3]; [7]): increased the insulin release observed with arginine

Structure (SMILES): O=C(O)CN1C(=O)c2cccc3cccc(c23)C1=O [alrestatin, 1,3-dioxo-1H-benz[de]isoquinoline-2(3H)-acetic acid]
- change in basal fasting plasma insulin levels vs vehicle (plasma insulin [4]): did not significantly alter
- change in plasma glucose levels vs vehicle (plasma glucose [5]): did not significantly alter
- LD50 (LD50 in rats; iv, intravenously): 1220 ± 45 mg/kg
- LD50 (LD50 in rats; po, perorally): > 2500 mg/kg
- inhibition of the enzyme aldose reductase (aldose reductase): inhibitor of the enzyme aldose reductase

Structure (SMILES): N=C(N)NCCC[C@H](N)C(=O)O [arginine, reference compound]
- stimulated glucagon release, mean above plasma hormone concentration in vehicle treated animals (plasma glucagon; [8]): about 100 pg/ml
- plasma glucagon concentration (plasma glucagon; arginine 100 mg/100 g i.v., 5 min, vehicles 180.6±5.8 pg/ml): 284.8 ± 13.7 pg/mL
- increase of plasma insulin concentration (plasma insulin [3]; [8]): about 100 μU/ml
